Values after ≈ are worked out from the molar mass of the structure shown. One block for each compound: values may come before it. Active and inactive are the calls of the source. The calls are words filed in the database; no cut-off is given here.
What was measured:
[1] = tested on: Aggregatibacter actinomycetemcomitans; assay: Antimicrobial activity against Haemophilus actinomycetemcomitans ATCC 29522 by turbidimetric analysis; format: functional
Prevotella intermedia [2] = assay: Antimicrobial activity against Prevotella intermedia ATCC 25611 by turbidimetric analysis; format: functional
Neutrophil [3] = assay: Antiinflammatory activity against human neutrophils assessed as inhibition of LPS-stimulated TNFalpha production at 5 ug/ml after 3 hrs by FACS analysis; format: functional, cell-based
Streptococcus mutans [4] = conditions: ATCC 25175, 1000 ug/ml
Description: Antimicrobial activity against adherent cells of Streptococcus mutans ATCC 25175 assessed as inhibition of water-insoluble glucan synthesis at 1000 ug/ml in presence of sucrose

Streptococcus mutans [5] = assay: Antimicrobial activity against Streptococcus mutans ATCC 25175 assessed as log reduction in bacterial growth at 250 ug/ml measured at 10 hrs by time kill analysis; format: functional
Streptococcus mutans [6] = assay: Bactericidal activity against Streptococcus mutans ATCC 25175 after 24 hrs by turbidimetric analysis; format: functional; conditions: ATCC 25175, 24 h
Homo sapiens [7] = species: Homo sapiens; assay: Toxicity in healthy human assessed as occurrence of after taste; format: organism-based; conditions: in vivo
Streptococcus mutans [8] = assay: Antimicrobial activity against Streptococcus mutans ATCC 25175 at 125 to 500 ug/ml by time kill analysis; format: functional, organism-based; conditions: TDE = time-dependent effect
Porphyromonas gingivalis [9] = assay: Bactericidal activity against Porphyromonas gingivalis ATCC 33277 after 24 hrs by turbidimetric analysis; format: functional; conditions: ATCC 33277, 24 h
Actinomyces viscosus [10] = assay: Antimicrobial activity against Actinomyces viscosus ATCC 15987 assessed as increase in membrane permeability at 1000 ug/ml after 30 mins by propidium iodide staining-based flow cytometry; format: functional, organism-based
Streptococcus mutans [11] = assay: Antimicrobial activity against Streptococcus mutans ATCC 25175 by turbidimetric analysis; format: functional
Enterococcus faecium [12] = assay: Bactericidal activity against Enterococcus faecium ATCC 8042 after 24 hrs by turbidimetric analysis; format: functional; conditions: ATCC 8042, 24 h
[13] = Cytotoxicity against human neutrophils at 2.5 to 10 ug/ml after 3 hrs by MTT assay; format: cell-based; conditions: neutrophil
Neutrophil [14] = assay: Antiinflammatory activity against human neutrophils assessed as inhibition of LPS-stimulated TNFalpha production at 10 ug/ml after 3 hrs by FACS analysis; format: functional, cell-based
Fusobacterium nucleatum [15] = assay: Antimicrobial activity against Fusobacterium nucleatum ATCC 10953 by turbidimetric analysis; format: functional
Streptococcus mutans [16] = assay: Antimicrobial activity against Streptococcus mutans ATCC 25175 after 12 hrs by time kill analysis; format: functional, organism-based
Streptococcus mutans [17] = assay: Antimicrobial activity against Streptococcus mutans ATCC 25175 assessed as eradication of preformed biofilm after 24 hrs by crystal violet staining; format: functional, organism-based; conditions: ATCC 25175, 24 h
Streptococcus mutans [18] = assay: Antimicrobial activity against Streptococcus mutans ATCC 25175 assessed as increase in membrane permeability at 1000 ug/ml after 30 mins by propidium iodide staining-based flow cytometry; format: functional, organism-based
Enterococcus faecium [19] = assay: Antimicrobial activity against Enterococcus faecium ATCC 8042 by turbidimetric analysis; format: functional
Prevotella intermedia [20] = assay: Bactericidal activity against Prevotella intermedia ATCC 25611 after 24 hrs by turbidimetric analysis; format: functional; conditions: ATCC 25611, 24 h
[21] = tested on: Aggregatibacter actinomycetemcomitans; assay: Bactericidal activity against Haemophilus actinomycetemcomitans ATCC 29522 after 24 hrs by turbidimetric analysis; format: functional; conditions: ATCC 29522, 24 h
Actinomyces viscosus [22] = assay: Antimicrobial activity against Actinomyces viscosus ATCC 15987 assessed as eradication of preformed biofilm after 24 hrs by crystal violet staining; format: functional, organism-based; conditions: ATCC 15987, 24 h
Actinomyces viscosus [23] = assay: Antimicrobial activity against Actinomyces viscosus ATCC 15987 assessed as post antibiotic effect at 250 ug/ml; format: functional
Actinomyces viscosus [24] = assay: Antimicrobial activity against Actinomyces viscosus ATCC 15987 assessed as post antibiotic effect at 2 times MIC; format: functional
Actinomyces viscosus [25] = assay: Bactericidal activity against Actinomyces viscosus ATCC 15987 after 24 hrs by turbidimetric analysis; format: functional; conditions: ATCC 15987, 24 h
Enterococcus faecalis [26] = assay: Bactericidal activity against Enterococcus faecalis ATCC 29212 after 24 hrs by turbidimetric analysis; format: functional; conditions: ATCC 29212, 24 h
Streptococcus mutans [27] = assay: Antimicrobial activity against Streptococcus mutans ATCC 25175 assessed as inhibition of biofilm formation after 24 hrs by crystal violet staining; format: functional, organism-based; conditions: ATCC 25175, 24 h
Neutrophil [28] = assay: Antiinflammatory activity against human neutrophils assessed as inhibition of LPS-stimulated TNFalpha production at 2.5 ug/ml after 3 hrs by FACS analysis; format: functional, cell-based
Streptococcus sanguinis [29] = assay: Bactericidal activity against Streptococcus sanguis ATCC 10556 after 24 hrs by turbidimetric analysis; format: functional; conditions: ATCC 10556, 24 h
Streptococcus mutans [30] = assay: Antimicrobial activity against Streptococcus mutans ATCC 25175 assessed as post antibiotic effect at 250 ug/ml; format: functional
Streptococcus mutans [31] = assay: Antimicrobial activity against adherent cells of Streptococcus mutans ATCC 25175 at 1000 ug/ml; format: functional, organism-based
Streptococcus sanguinis [32] = assay: Antimicrobial activity against Streptococcus sanguis ATCC 10556 by turbidimetric analysis; format: functional
Homo sapiens [33] = species: Homo sapiens; assay: Toxicity in healthy human assessed as occurrence of tingling sensation; format: organism-based; conditions: in vivo
Actinomyces viscosus [34] = assay: Antimicrobial activity against Actinomyces viscosus ATCC 15987 assessed as inhibition of biofilm formation after 24 hrs by crystal violet staining; format: functional, organism-based; conditions: ATCC 15987, 24 h
Enterococcus faecalis [35] = assay: Antimicrobial activity against Enterococcus faecalis ATCC 29212 by turbidimetric analysis; format: functional
Liver microsomes = assay: Antioxidant activity in rat liver microsomes assessed as reduction in lipid peroxidation at 10 to 100 ug/ml by thiobarbituric acid assay; format: functional; conditions: Microsome
Streptococcus mutans [36] = assay: Antimicrobial activity against Streptococcus mutans ATCC 25175 assessed as post antibiotic effect at 2 times MIC; format: functional
Actinomyces viscosus [37] = assay: Antimicrobial activity against Actinomyces viscosus ATCC 15987 by turbidimetric analysis; format: functional
Porphyromonas gingivalis [38] = assay: Antimicrobial activity against Porphyromonas gingivalis ATCC 33277 by turbidimetric analysis; format: functional
Fusobacterium nucleatum [39] = assay: Bactericidal activity against Fusobacterium nucleatum ATCC 10953 after 24 hrs by turbidimetric analysis; format: functional; conditions: ATCC 10953, 24 h
Neutrophil [40] = assay: Antiinflammatory activity against human neutrophils assessed as inhibition of LPS-stimulated TNFalpha production at 10 ug/ml after 3 hrs by FACS analysis

MIC [1]: 250 µg/mL (≈ 1660 µM) | MIC (Prevotella intermedia [2]): 125 µg/mL (≈ 832 µM) | MIC (Streptococcus mutans [11]): 250 µg/mL (≈ 1660 µM) | MIC (Fusobacterium nucleatum [15]): 125 µg/mL (≈ 832 µM) | IC50 (Streptococcus mutans [17]): 500 µg/mL (≈ 3330 µM) | MIC (Enterococcus faecium [19]): 250 µg/mL (≈ 1660 µM) | IC50 (Actinomyces viscosus [22]): 1000 µg/mL (≈ 6660 µM) | IC50 (Streptococcus mutans [27]): 500 µg/mL (≈ 3330 µM) | MIC (Streptococcus sanguinis [32]): 125 µg/mL (≈ 832 µM) | IC50 (Actinomyces viscosus [34]): 500 µg/mL (≈ 3330 µM) | MIC (Enterococcus faecalis [35]): 250 µg/mL (≈ 1660 µM) | MIC (Actinomyces viscosus [37]): 250 µg/mL (≈ 1660 µM) | MIC (Porphyromonas gingivalis [38]): 62.5 µg/mL (≈ 416 µM)
Compound: C=CCc1ccc(O)c(O)c1 [HYDROXYCHAVICOL]
inhibition (Neutrophil [3]): Active | inhibition (Streptococcus mutans [4]): Active | log reduction (Streptococcus mutans [5]): 3 | MBC (Streptococcus mutans [6]): 500 µg/mL (≈ 3330 µM) | Activity (Homo sapiens [7]): Non-toxic | Activity (Streptococcus mutans [8]): tde | MBC (Porphyromonas gingivalis [9]): 62.5 µg/mL (≈ 416 µM) | Activity (Actinomyces viscosus [10]): Active | MBC (Enterococcus faecium [12]): 500 µg/mL (≈ 3330 µM) | Activity [13]: Non-toxic | inhibition (Neutrophil [14]): Active | Activity (Streptococcus mutans [16]): Dose-dependent effect | Activity (Streptococcus mutans [18]): Active | MBC (Prevotella intermedia [20]): 125 µg/mL (≈ 832 µM) | MBC [21]: 500 µg/mL (≈ 3330 µM) | PAE (Actinomyces viscosus [23]): 4 h | PAE (Actinomyces viscosus [24]): 7 h | MBC (Actinomyces viscosus [25]): 500 µg/mL (≈ 3330 µM) | MBC (Enterococcus faecalis [26]): 250 µg/mL (≈ 1660 µM) | inhibition (Neutrophil [28]): Active | MBC (Streptococcus sanguinis [29]): 125 µg/mL (≈ 832 µM) | PAE (Streptococcus mutans [30]): 3.5 h | Activity (Streptococcus mutans [31]): Active | Activity (Homo sapiens [33]): Non-toxic | inhibition (Liver microsomes): 15% | PAE (Streptococcus mutans [36]): 6 h | MBC (Fusobacterium nucleatum [39]): 125 µg/mL (≈ 832 µM)

Compound: COc1ccc(C2CNC(=O)C2)cc1OC1CCCC1 (configuration not stated)
inhibition (Neutrophil [40]): Active

Compound: Cc1ccc(C(C)C)c(O)c1 [THYMOL]
Activity [13]: Non-toxic
